The test system of data set [1] is human sebocytes. Put plainly: in vitro sebum suppression: 14C-acetate label remaining in sebocytes. Format: cell-based. Conditions: for activity at 1 µM / activity at 10 µM: Homo sapiens, read-out: % of Control. The procedure:
Secondary cultures of human sebocytes obtained from an adult […] were grown in 48-well tissue culture plates (Costar Corp.; Cambridge, Mass.) until two days post-confluence. Sebocyte growth medium consisted of Clonetics Keratinocyte Basal Medium (KBM) supplemented with 14 μg/ml bovine pituitary extract, 0.4 μg/ml hydrocortisone, 5 μg/ml insulin, […], 1.2×10^-10 M cholera toxin, 100 units/ml penicillin, and 100 μg/ml streptomycin. All cultures were incubated at 37° C. in the presence of 7.5% CO2. Medium was changed three times per week.
On the day of experimentation, the growth medium was removed and the sebocytes washed three times with sterile Dulbecco's Modified Eagle Medium (DMEM; phenol red free). Fresh DMEM was added to each sample (triplicates) with 1-5 microliter of test agent solubilized in ethanol. Controls consisted of addition of ethanol alone. Each plate was returned to the incubator for 20 hours.
This was followed by the addition of 14C-acetate buffer (5 mM final concentration, 56 mCi/mmol specific activity). Sebocytes were returned to the incubator for four hours afterwhich each culture was rinsed three times with phosphate buffered saline to remove unbound label. Radioactive label remaining in the sebocytes was harvested and counted using a Beckman scintillation counter.

The subject of data set [2] is human sebocytes. Put plainly: lactate dehydrogenase activity in sebocyte culture supernatant. The note with it: after 20 hours. Further details: key: A340 at 5 min minus initial reading; higher = more LDH. It counts as cell-based. The procedure: For the experiments summarized in Tables 1 and 2, lactate dehydrogenase amount was also measured. After 20 hours, 25 μl of supernatant was removed from each well and transferred to a 96-well plate. A vial of lactate dehydrogenase reagent (LD-L-20; Sigma Diagnostics; Cat 228-20) was reconstituted with 20 ml of distilled water. 200 μl of this reconstituted reagent was added to each well and the plate immediately analyzed at 340 nm. After exactly five minutes at room temperature, the plate was re-analyzed at 340 nm. The amount of lactate dehydrogenase activity was calculated by subtracting the initial reading from the five minute reading (this value indicated below in column headed “LDH”). The higher the number, the more lactate dehydrogenase is present. Increased lactate dehydrogenase numbers are associated with cellular crisis. Experimental samples were compared to the value obtained with the ethanol treated control.

Entries after “also recorded” stand apart in the source; their conditions may differ. Like-named read-outs stand apart in the source and are kept apart here.

For the compound `O=C(Nc1ccc(Cl)cc1)Nc1ccc(Cl)c(Cl)c1` [TCC, 3,4,4-trichlorocarbanilide], the “% of Control” value amounted to 70.4% with human sebocytes [1] (Table 1, 1 μM, 20 hours then 4 hours 14C-acetate); 1.0% in the data set with human sebocytes [1] (Table 1, 10 μM, 20 hours then 4 hours 14C-acetate); 0.8% in the data set with human sebocytes [1] (Table 1, 100 μM, 20 hours then 4 hours 14C-acetate); 0.8% with human sebocytes [1] (Table 1, 1 mM, 20 hours then 4 hours 14C-acetate); 80.4% in the data set on human sebocytes [1] (Table 2, 100 nM); 54.6% in the data set on human sebocytes [1] (Table 2, 500 nM). The “% of Control” value with human sebocytes [1] (Table 2, 1 μM) is reported as 20.9%; with human sebocytes [1] (Table 3, 250 nM) it was 97.6%; with human sebocytes [1] (Table 3, 500 nM), 75.6%; in the data set with human sebocytes [1] (Table 3, 1 μM) it was 81.4%; with human sebocytes [1] (Table 3, 2.5 μM) it was 4.3%. For the same compound, the “sebum suppressive effectiveness compared with Phenol Red” value in the data set with human sebocytes [1] (Table 2) was “more effective than Phenol Red”. Besides, the “sebum suppressive activity in the presence of retinol (retinoid)” value in the data set on human sebocytes [1] (Table 3) is listed as “improved sebum suppressive activity; also recorded: significantly enhanced”. Moreover, the sebum suppressive activity entry in the data set on human sebocytes [1] (summary of Tables 1-3) was “had sebum suppressive activity”. Further, the LDH came to 0.039 in the data set with human sebocytes [2] (Table 1, 1 μM, 340 nm five minute minus initial reading, control 0.094); 0.059 in the data set with human sebocytes [2] (Table 1, 10 μM, 340 nm five minute minus initial reading, control 0.094); 0.114 in the data set with human sebocytes [2] (Table 1, 100 μM, 340 nm five minute minus initial reading, control 0.094); 0.190 in the data set with human sebocytes [2] (Table 1, 1 mM, 340 nm five minute minus initial reading, control 0.094); 0.137 in the data set on human sebocytes [2] (Table 2, 100 nM, control 0.154); 0.136 in the data set with human sebocytes [2] (Table 2, 500 nM, control 0.154). In the data set with human sebocytes [2] (Table 2, 1 μM, control 0.154), this compound registered an LDH of 0.183.

On to `CC1=C(/C=C/C(C)=C/C=C/C(C)=C/CO)C(C)(C)CCC1` [Retinol], for which, in the data set with human sebocytes [1] (Table 3, 1 μM), the activity at 1 µM worked out at 104%. Besides, the activity at 10 µM in the data set on human sebocytes [1] (Table 3, 10 μM) came to 102%.

Take `O=S1(=O)OC(c2ccc(O)cc2)(c2ccc(O)cc2)c2ccccc21` [Phenol Red]: the activity at 1 µM in the data set on human sebocytes [1] (Table 2, 1 μM) was 91.4%. For the same compound, in the data set on human sebocytes [1] (Table 2, 10 μM), the activity at 10 µM was determined as 70.9%. Besides, the LDH came to 0.169 in the data set on human sebocytes [2] (Table 2, 1 μM, control 0.154) and 0.237 with human sebocytes [2] (Table 2, 10 μM, control 0.154).

For the origin of these results see patent US20020018792A1, “Skin care anti-sebum compositions containing 3,4,4-trichlorocarbanilide” (Unilever Home & Personal Care USA, Division of Conopco, Inc., priority 2000, published 2002).
